Assay results reported in article PMC9506414, “Novel 2,6,9-Trisubstituted Purines as Potent CDK Inhibitors Alleviating Trastuzumab-Resistance of HER2-Positive Breast Cancers” (Pharmaceuticals, 2022).
“Also recorded” adds a separate entry of the source. Read-outs that look alike come from different tables or passages of the source.

Assays:
HCC1954 cells = experiment: Antiproliferation assay (Cell-titer Glo, 72 h); format: cell-based; settings: Homo sapiens, 72 h, means and standard deviations from three independent assays, read-out: HCC1954 (GI50/μM)
Description: (§1) Breast-cancer cell lines (SK-Br3, HCC-1954) were purchased from Korea Cell Line Bank (Seoul, Korea) and were cultured in RPMI medium supplemented with 10% FBS and penicillin/streptomycin (Welgene, Seoul, Korea). All cell lines were maintained at 37 °C in a cell incubator in the presence of 5% CO2.
(§2) Breast-cancer cells in culture media (100 μL volume/well, 5000 SK-Br3 cells/well, 1000 HCC-1954 cells/well) were seeded in tissue culture-treated 96-well plates, and incubated at a cell incubator for 24 h. Serially diluted compounds (3-fold, 10 point from 10 mM, duplicated) were pre-plated and 500 nL of compound solutions were pin-transferred to the cells in the assay plates using pintool system (JANUS liquid handler, PerkinElmer, Waltham, MA, USA) and incubated at a cell incubator for 72 h. Cell-titer Glo^TM reagent (50 μL, Promega Corp., Madison, WI, USA) was added to each well, and the luminescence signal was read using an Envision^TM plate reader (PerkinElmer, Waltham, MA, USA). The titration curve fitting and IC50 values were generated using Prism 7.0 s/w (GraphPad, San Diego, CA, USA).

SK-Br3 cells = experiment: Antiproliferation assay (Cell-titer Glo, 72 h); format: cell-based; settings: Homo sapiens, SK-BR-3; 72 h; means and standard deviations from three independent assays; read-out: SK-Br3 (GI50/μM)
Description: as §1, §2

Pol II p-CTD (Ser2) = experiment: Western blot of Pol II p-CTD (Ser2) in SK-Br3 cells; format: cell-based, human; settings: SK-Br3 cells, 0.2, 1 μM, 2 h
Text: For Western blot analysis, the following antibodies were used: anti-Pol II CTD (2629S, Cell Signaling Technology, Danvers, MA, USA), anti-Pol II p-CTD (Ser2) (13499S, Cell Signaling Technology), anti-cyclinK (A301-939A-M, Bethyl Laboratories), anti-IRS1 (3407S, Cell Signaling Technology), anti-WNT1 (SC-514531, Santa Cruz Biotechnology, Dallas, TX, USA), anti-β-actin (MAB1501R, Millipore, Burlington, MA, USA), and horseradish peroxidase (HRP)-conjugated secondary antibodies (anti-mouse GTX213112-01; anti-rabbit GTX213110-01) (Genetex, Irvine, CA, USA).
Cells were lysed with lysis buffer containing 50 mM Tris pH 7.4, 150 mM NaCl, 1 mM EDTA, 1% NP-40, and 0.25% sodium deoxycholate supplemented with protease-inhibitor and phosphatase-inhibitor cocktails. The lysate samples (25 μg/lane) were loaded onto 6–12% sodium dodecyl sulfate polyacrylamide gel and separated by electrophoresis (SDS-PAGE). The proteins were transferred to nitrocellulose membrane (Gelman Sciences, Ann Arbor, MI, USA) by electroblotting. The membranes were blocked with 5% non-fat dry milk (MB Cell, Seoul, Korea), incubated with primary antibodies for overnight at 4 °C. After the washing steps were performed with TBST solution, the membranes were incubated with HRP-conjugated secondary antibodies for 1 h at rt. After the secondary washing steps using TBST solution, protein bands on the membranes were visualized using enhanced chemiluminescence ECL detection reagent (Biorad Laboratories, Hercules, CA, USA).

CDK12/CyclinK = CDK12/CyclinK (Homo sapiens, UniProt Q9NYV4); experiment: In vitro CDK12/cyclinK kinase assay; format: biochemical; set-up: purchased Reaction Biology Corp. (CRO that ran the assay)
Description: In vitro CDK12/cyclinK assays for all compounds and in vitro kinome-wide inhibition profiling of 30d at 10 μM were performed by a CRO company (Reaction Biology Corp., San Diego, CA, USA).

cyclinK = experiment: Western blot of cyclinK in SK-Br3 cells; format: cell-based, human; settings: SK-Br3 cells, 0.2, 1 μM, 2 h
Description: The proteins were transferred to nitrocellulose membrane (Gelman Sciences, Ann Arbor, MI, USA) by electroblotting. The membranes were blocked with 5% non-fat dry milk (MB Cell, Seoul, Korea), incubated with primary antibodies for overnight at 4 °C. After the washing steps were performed with TBST solution, the membranes were incubated with HRP-conjugated secondary antibodies for 1 h at rt. After the secondary washing steps using TBST solution, protein bands on the membranes were visualized using enhanced chemiluminescence ECL detection reagent (Biorad Laboratories, Hercules, CA, USA).

[1] = Tables 1-4, read-out: CDK12/CyclinK (IC50/μM)

CDK12/CyclinK, sequence (Q9NYV4 whole entry): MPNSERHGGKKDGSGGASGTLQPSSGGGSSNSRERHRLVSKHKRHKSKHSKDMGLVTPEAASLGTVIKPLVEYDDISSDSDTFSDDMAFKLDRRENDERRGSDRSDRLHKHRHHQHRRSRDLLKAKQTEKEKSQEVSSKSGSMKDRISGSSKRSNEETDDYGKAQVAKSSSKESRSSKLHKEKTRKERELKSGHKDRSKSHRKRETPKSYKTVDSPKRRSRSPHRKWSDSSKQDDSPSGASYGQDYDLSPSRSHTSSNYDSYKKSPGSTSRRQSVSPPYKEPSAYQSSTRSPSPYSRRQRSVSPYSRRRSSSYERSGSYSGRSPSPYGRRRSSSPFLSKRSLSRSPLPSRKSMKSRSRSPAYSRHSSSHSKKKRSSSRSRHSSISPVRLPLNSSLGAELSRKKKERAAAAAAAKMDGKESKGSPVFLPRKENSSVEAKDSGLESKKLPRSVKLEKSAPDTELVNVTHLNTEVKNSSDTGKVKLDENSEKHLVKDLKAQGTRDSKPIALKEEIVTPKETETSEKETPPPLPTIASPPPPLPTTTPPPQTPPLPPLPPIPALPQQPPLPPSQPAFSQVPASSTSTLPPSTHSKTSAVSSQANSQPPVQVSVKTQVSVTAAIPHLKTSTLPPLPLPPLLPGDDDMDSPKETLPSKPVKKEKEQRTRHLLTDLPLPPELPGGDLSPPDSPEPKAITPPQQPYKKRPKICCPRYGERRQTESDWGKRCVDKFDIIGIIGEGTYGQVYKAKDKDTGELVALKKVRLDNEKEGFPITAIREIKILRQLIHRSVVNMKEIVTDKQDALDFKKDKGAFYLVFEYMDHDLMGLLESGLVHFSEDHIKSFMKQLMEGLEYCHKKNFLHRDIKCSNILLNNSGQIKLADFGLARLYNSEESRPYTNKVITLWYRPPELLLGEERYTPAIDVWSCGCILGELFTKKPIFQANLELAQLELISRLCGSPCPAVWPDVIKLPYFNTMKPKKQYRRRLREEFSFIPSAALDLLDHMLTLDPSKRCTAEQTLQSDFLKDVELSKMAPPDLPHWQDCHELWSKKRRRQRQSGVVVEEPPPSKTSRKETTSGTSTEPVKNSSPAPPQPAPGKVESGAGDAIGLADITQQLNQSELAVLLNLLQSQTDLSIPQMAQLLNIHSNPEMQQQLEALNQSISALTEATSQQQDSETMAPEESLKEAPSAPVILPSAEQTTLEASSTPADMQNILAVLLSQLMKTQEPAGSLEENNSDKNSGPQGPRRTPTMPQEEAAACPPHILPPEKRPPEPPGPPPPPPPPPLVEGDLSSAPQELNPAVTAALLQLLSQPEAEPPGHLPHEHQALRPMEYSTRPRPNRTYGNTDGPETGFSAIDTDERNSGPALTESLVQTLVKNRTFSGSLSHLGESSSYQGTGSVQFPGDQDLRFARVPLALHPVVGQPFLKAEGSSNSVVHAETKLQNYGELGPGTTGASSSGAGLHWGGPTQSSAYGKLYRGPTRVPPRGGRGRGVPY
CDK12/CyclinK, sequence (O75909 whole entry partner): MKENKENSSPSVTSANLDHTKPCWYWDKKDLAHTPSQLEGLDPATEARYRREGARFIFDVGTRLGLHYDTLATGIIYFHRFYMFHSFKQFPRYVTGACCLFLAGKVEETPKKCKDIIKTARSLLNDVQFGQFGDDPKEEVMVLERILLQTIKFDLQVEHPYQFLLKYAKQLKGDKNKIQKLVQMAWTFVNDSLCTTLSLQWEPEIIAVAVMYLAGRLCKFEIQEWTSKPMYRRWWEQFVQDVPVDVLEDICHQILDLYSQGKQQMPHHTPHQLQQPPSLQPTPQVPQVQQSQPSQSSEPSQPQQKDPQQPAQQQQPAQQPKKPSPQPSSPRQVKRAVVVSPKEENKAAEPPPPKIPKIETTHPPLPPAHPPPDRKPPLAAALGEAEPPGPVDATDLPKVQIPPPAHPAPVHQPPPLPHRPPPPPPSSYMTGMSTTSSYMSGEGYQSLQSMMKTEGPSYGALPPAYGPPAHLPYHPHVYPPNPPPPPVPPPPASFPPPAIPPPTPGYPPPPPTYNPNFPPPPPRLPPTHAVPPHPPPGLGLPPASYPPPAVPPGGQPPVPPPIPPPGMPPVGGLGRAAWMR

GI50 (HCC1954 cells) [µM] | GI50 (SK-Br3 cells) [µM] | IC50 (CDK12/CyclinK; [1]) [µM] | IC50 (CDK12/CyclinK; read-out: CDK12/cyclinK IC50) [µM] | IC50 (CDK12/CyclinK; Table 5, means and standard deviations from three independent assays, read-out: CDK12/CyclinK (IC50/μM)) [µM] | SMILES | PolII p-CTD (Ser2) level (Western blot) (Pol II p-CTD (Ser2)) | cyclinK level (Western blot) (cyclinK)
0.106 ± 0.011 | 0.151 ± 0.025 | 0.433 |  |  | CC(C)n1cnc2c(NCc3ccc(-c4ccccn4)cn3)nc(-c3cccnc3)nc21 [Compound 17a, N-([2,3′-Bipyridin]-6′-ylmethyl)-9-isopropyl-2-(pyridin-3-yl)-9H-purin-6-amine] | downregulated Pol II p-CTD (Ser2) and cyclinK in a dose-dependent manner | most prominent cyclinK degradation; also recorded: downregulated Pol II p-CTD (Ser2) and cyclinK in a dose-dependent manner
0.174 ± 0.019 | 0.262 ± 0.021 | 0.053 |  |  | CC(C)n1cnc2c(NCc3ccc(-c4cccnc4)nc3)nc(-c3ccc(NCCO)nc3)nc21 [Compound 22a, 2-((5-(6-(([2,3′-Bipyridin]-5-ylmethyl)amino)-9-isopropyl-9H-purin-2-yl)pyridin-2-yl)amino)ethan-1-ol] |  | 
0.977 ± 0.07 | 1.18 ± 0.118 | 0.304 |  |  | CC(C)n1cnc2c(NCc3ccc(-c4cccnc4)nc3)nc(-c3ccc(NCCCO)nc3)nc21 [Compound 22b, 3-((5-(6-(([2,3′-Bipyridin]-5-ylmethyl)amino)-9-isopropyl-9H-purin-2-yl)pyridin-2-yl)amino)propan-1-ol] |  | 
0.433 ± 0.052 | 0.473 ± 0.087 | 0.086 |  |  | CC(C)n1cnc2c(NCc3ccc(-c4cccnc4)nc3)nc(-c3ccnc(NCCO)c3)nc21 [Compound 22c, 2-((4-(6-(([2,3′-Bipyridin]-5-ylmethyl)amino)-9-isopropyl-9H-purin-2-yl)pyridin-2-yl)amino)ethan-1-ol] |  | 
0.387 ± 0.037 | 0.48 ± 0.026 | 0.113 |  |  | CC(C)n1cnc2c(NCc3ccc(-c4cccnc4)nc3)nc(-c3ccnc(NCCCO)c3)nc21 [Compound 22d, 3-((4-(6-(([2,3′-Bipyridin]-5-ylmethyl)amino)-9-isopropyl-9H-purin-2-yl)pyridin-2-yl)amino)propan-1-ol] |  | 
9.97 ± 1.86 | 13.3 ± 3.15 | 2.05 |  |  | CC(C)n1cnc2c(NCc3ccc(-c4cccnc4)nc3)nc(-n3cc(CO)nn3)nc21 [Compound 26a, (1-(6-(([2,3′-Bipyridin]-5-ylmethyl)amino)-9-isopropyl-9H-purin-2-yl)-1H-1,2,3-triazol-4-yl)methanol] |  | 
6.16 ± 0.429 | 8.3 ± 0.882 | 0.539 |  |  | CC(C)n1cnc2c(NCc3ccc(-c4cccnc4)nc3)nc(-n3cc(CCO)nn3)nc21 [Compound 26b, 2-(1-(6-(([2,3′-Bipyridin]-5-ylmethyl)amino)-9-isopropyl-9H-purin-2-yl)-1H-1,2,3-triazol-4-yl)ethan-1-ol] |  | 

The next lines start with the compound.

SMILES | GI50 (HCC1954 cells) [µM] | GI50 (SK-Br3 cells) [µM] | IC50 (CDK12/CyclinK; [1]) [µM] | IC50 (CDK12/CyclinK; read-out: CDK12/cyclinK IC50) [µM] | IC50 (CDK12/CyclinK; Table 5, means and standard deviations from three independent assays, read-out: CDK12/CyclinK (IC50/μM)) [µM] | PolII p-CTD (Ser2) level (Western blot) (Pol II p-CTD (Ser2)) | cyclinK level (Western blot) (cyclinK)
CC(C)n1cnc2c(NCc3ccc(-c4cccnc4)cn3)nc(-c3cccnc3)nc21 [Compound 17b, N-([3,3′-Bipyridin]-6-ylmethyl)-9-isopropyl-2-(pyridin-3-yl)-9H-purin-6-amine] | 0.627 ± 0.128 | 0.862 ± 0.178 | 0.582 |  |  | downregulated Pol II p-CTD (Ser2) and cyclinK in a dose-dependent manner | downregulated Pol II p-CTD (Ser2) and cyclinK in a dose-dependent manner
CC(C)n1cnc2c(NCc3ccc(-c4ccncc4)cn3)nc(-c3cccnc3)nc21 [Compound 17d, N-([3,4′-Bipyridin]-6-ylmethyl)-9-isopropyl-2-(pyridin-3-yl)-9H-purin-6-amine] | 0.887 ± 0.04 | 0.741 ± 0.034 | 0.627 |  |  | downregulated Pol II p-CTD (Ser2) and cyclinK in a dose-dependent manner | downregulated Pol II p-CTD (Ser2) and cyclinK in a dose-dependent manner
Cc1cc(-c2ccc(CNc3nc(-c4cccnc4)nc4c3ncn4C(C)C)nc2)ccn1 [Compound 17e, 9-Isopropyl-N-((2′-methyl-[3,4′-bipyridin]-6-yl)methyl)-2-(pyridin-3-yl)-9H-purin-6-amine] | 0.23 ± 0.044 | 0.277 ± 0.038 | 0.481 |  |  | downregulated Pol II p-CTD (Ser2) and cyclinK in a dose-dependent manner | downregulated Pol II p-CTD (Ser2) and cyclinK in a dose-dependent manner
Cc1cc(N)n(-c2nc(NCc3ccc(-c4cccnc4)nc3)c3ncn(C(C)C)c3n2)n1 [Compound 24, N-([2,3′-Bipyridin]-5-ylmethyl)-2-(5-amino-3-methyl-1H-pyrazol-1-yl)-9-isopropyl-9H-purin-6-amine] | 3.44 ± 0.177 | 5.16 ± 0.365 | 2.35 |  |  |  | 
CCn1cnc2c(NCc3ccc(-c4cccnc4)nc3)nc(-c3cccnc3)nc21 [Compound 28a, N-([2,3′-Bipyridin]-5-ylmethyl)-9-ethyl-2-(pyridin-3-yl)-9H-purin-6-amine] | 0.142 ± 0.014 | 0.215 ± 0.053 | 0.016 | < 0.03 |  |  | 
c1cncc(-c2ccc(CNc3nc(-c4cccnc4)nc4c3ncn4C3CCCC3)cn2)c1 [Compound 28b, N-([2,3′-Bipyridin]-5-ylmethyl)-9-cyclopentyl-2-(pyridin-3-yl)-9H-purin-6-amine] | 2.14 ± 0.176 | 2.6 ± 0.31 | 0.293 |  |  |  | 
CN(C)C/C=C/C(=O)Nc1ccc(C(=O)N2CCC[C@@H](Nc3ncc(Cl)c(-c4c[nH]c5ccccc45)n3)C2)cc1 [THZ531, reference compound] | 0.195 ± 0.05 | 0.03 ± 0.006 |  |  | 0.051 ± 0.007 |  | 
